Experimental data published in patent US5330897A, “Sialic acid binding lectin of protozoan origin” (South Alabama Medical Science Foundation, priority 1992, dated 1994).

Legend:
T. mobilensis lectin = assay: Inhibition of T. mobilensis lectin-mediated hemagglutination; type: biochemical, Tritrichomonas mobilensis; conditions: for Minimal Inhibitory Conc.: 2 units of hemagglutinin
[1] = tested on: T. augusta cell-free lysate hemagglutinin; assay: Inhibition of HA activity of T. augusta cell-free lysate; type: biochemical, Tritrichomonas augusta
[2] = tested on: T. foetus cell-free lysate hemagglutinin; assay: Inhibition of HA activity of T. foetus cell-free lysate; type: biochemical, Tritrichomonas foetus
[3] = tested on: T. mobilensis cell-free lysate hemagglutinin; assay: Inhibition of HA activity of T. mobilensis cell-free lysate; type: biochemical, Tritrichomonas mobilensis
live T. mobilensis = assay: Slide agglutination of live T. mobilensis by lectins; type: cell-based, Tritrichomonas mobilensis; conditions: carbohydrate 100 mM
Protocol: Agglutination of live T. mobilensis with lectins with various carbohydrate binding specificities was performed by a slide agglutination assay. Lectin Kit LK-2000 (Vector Laboratories) consisted of the following lectins: concanavalin A (ConA), wheat germ agglutinin (WGA), soybean agglutinin (SBA), gorse seed agglutinin (UEA-1), castor bean agglutinin type 1 (RCA-1), peanut agglutinin (PNA), and horse gram agglutinin (DBA). Limulus polyphemus lectin (LPA) was obtained from Sigma, and Limax flavus (LFA) agglutinin from EY Labs. Lectins and specific carbohydrates were dissolved in buffers recommended by the manufacturers. Twenty five μl of washed T. mobilensis (about 2×10^7 /ml) were placed onto a glass slide. An equal volume of lectin (200 μg/ml) or lectin with specific carbohydrate (final concentration, 100 mM) was added. After mixing for 2 to 3 min, the agglutination was evaluated under a microscope.

live cells of T. foetus = assay: Inhibition of HA by live cells of T. foetus; type: cell-based, Tritrichomonas foetus

## Bovine Albumin: glycoprotein or protein tested as inhibitor
T. mobilensis lectin; glycoproteins or proteins
  Minimal Inhibitory Conc.: > 1000 µg/mL

## OC[C@H]1O[C@@](CO)(O[C@H]2O[C@H](CO)[C@@H](O)[C@H](O)[C@H]2O)[C@@H](O)[C@@H]1O [Sucrose]
T. mobilensis lectin; carbohydrates
  Minimal Inhibitory Conc.: > 100 mM
[1]; carbohydrates, […]
  Conc. required to inhibit 2 HA units, T. augusta: > 200 µg/mL
[2]; carbohydrates, […]
  Conc. required to inhibit 2 HA units, T. foetus: > 200 µg/mL
[3]; carbohydrates, […]
  Conc. required to inhibit 2 HA units, T. mobilensis: > 200 µg/mL

## Laminin
T. mobilensis lectin; glycoproteins or proteins
  Minimal Inhibitory Conc.: 6.8 µg/mL

## C[C@H]1OC(O)[C@H](O)[C@@H](O)[C@H]1O (stereo partly drawn) [D-fucose]
T. mobilensis lectin; carbohydrates
  Minimal Inhibitory Conc.: > 100 mM
[1]; carbohydrates, […]
  Conc. required to inhibit 2 HA units, T. augusta: > 200 µg/mL
[2]; carbohydrates, […]
  Conc. required to inhibit 2 HA units, T. foetus: > 200 µg/mL
Live T. mobilensis
  Effect of specific carbohydrate on agglutinating activity of the appropriate lectin: abolished agglutinating activity
[3]; carbohydrates, […]
  Conc. required to inhibit 2 HA units, T. mobilensis: > 200 µg/mL

## CC(=O)NC1C(O)CC(OCC2OC(OC3C(CO)OC(O)C(O)C3O)C(O)C(O)C2O)(C(=O)O)OC1C(O)C(O)CO (stereo not shown) [6'-sialyllactose]
T. mobilensis lectin; carbohydrates
  Minimal Inhibitory Conc.: 1.0 mM

## OC1OC[C@@H](O)[C@H](O)[C@H]1O (stereo partly drawn) [D-xylose]
T. mobilensis lectin; carbohydrates
  Minimal Inhibitory Conc.: > 100 mM
[1]; carbohydrates, […]
  Conc. required to inhibit 2 HA units, T. augusta: > 200 µg/mL
[2]; carbohydrates, […]
  Conc. required to inhibit 2 HA units, T. foetus: > 200 µg/mL
[3]; carbohydrates, […]
  Conc. required to inhibit 2 HA units, T. mobilensis: > 200 µg/mL

## COC1(C(=O)O)CC(O)C(NC(C)=O)C(C(O)C(O)CO)O1 (stereo not drawn) [N-acetylneruaminic acid β-methyl glycoside]
T. mobilensis lectin; carbohydrates
  Minimal Inhibitory Conc.: > 100 mM

## glucuronic acid
T. mobilensis lectin; carbohydrates
  Minimal Inhibitory Conc.: > 100 mM

## O=P(O)(O)OC[C@H]1OC(O)[C@@H](O)[C@@H](O)[C@@H]1O (stereo partly shown) [Mannose-6-phosphate]
T. mobilensis lectin; carbohydrates
  Minimal Inhibitory Conc.: > 100 mM

## OC[C@H]1O[C@H](O[C@H]2[C@H](O)[C@@H](O)C(O)O[C@@H]2CO)[C@H](O)[C@@H](O)[C@@H]1O (mixture of isomers) [Maltose]
T. mobilensis lectin; carbohydrates
  Minimal Inhibitory Conc.: > 100 mM

## GD1A
T. mobilensis lectin; at mg/ml concentrations
  Inhibition of hemagglutination by gangliosides: did not inhibit

## O=C(O)[C@H]1OC(O)[C@H](O)[C@@H](O)[C@H]1O (stereo partly drawn) [D-galacturonic acid]
T. mobilensis lectin; carbohydrates
  Minimal Inhibitory Conc.: > 100 mM

## O=P(O)(O)OC1O[C@H](CO)[C@@H](O)[C@H](O)[C@@H]1O (stereo partly shown) [mannose-1-phosphate]
T. mobilensis lectin; carbohydrates
  Minimal Inhibitory Conc.: > 100 mM

## O=C(CO)[C@@H](O)[C@H](O)[C@H](O)CO [D-fructose]
T. mobilensis lectin; carbohydrates
  Minimal Inhibitory Conc.: > 100 mM
[1]; carbohydrates, […]
  Conc. required to inhibit 2 HA units, T. augusta: > 200 µg/mL
[2]; carbohydrates, […]
  Conc. required to inhibit 2 HA units, T. foetus: > 200 µg/mL
[3]; carbohydrates, […]
  Conc. required to inhibit 2 HA units, T. mobilensis: > 200 µg/mL

## CC(=O)N[C@H]1C(O)O[C@H](CO)[C@@H](O)[C@@H]1O (stereo partly shown) [N-acetylglucosamine]
T. mobilensis lectin; carbohydrates
  Minimal Inhibitory Conc.: > 100 mM
[1]; carbohydrates, […]
  Conc. required to inhibit 2 HA units, T. augusta: > 200 µg/mL
[2]; carbohydrates, […]
  Conc. required to inhibit 2 HA units, T. foetus: > 200 µg/mL
Live T. mobilensis
  Effect of specific carbohydrate on agglutinating activity of the appropriate lectin: abolished agglutinating activity
[3]; carbohydrates, […]
  Conc. required to inhibit 2 HA units, T. mobilensis: > 200 µg/mL

## CC(=O)NC1C(O)CC(OC2C(O)C(CO)OC(OC3C(CO)OC(O)C(O)C3O)C2O)(C(=O)O)OC1C(O)C(O)CO (stereo not shown) [3'-sialyllactose]
T. mobilensis lectin; carbohydrates
  Minimal Inhibitory Conc.: 2.0 mM

## CC(=O)N[C@H]1[C@@H](O)[C@H](O)[C@@H](CO)O[C@H]1O [N-acetyl-β-D-mannosamine]
T. mobilensis lectin; carbohydrates
  Minimal Inhibitory Conc.: > 100 mM

## CC(=O)N[C@H]1[C@H](O[C@H]2[C@H](O)[C@@H](NC(C)=O)C(O)O[C@@H]2CO)O[C@H](CO)[C@@H](O)[C@@H]1O (stereo partly shown) [N,N-diacetyl chitobiose]
T. mobilensis lectin; carbohydrates
  Minimal Inhibitory Conc.: > 100 mM

## CC(=O)N[C@H]1C(O)O[C@H](CO)[C@@H](O)[C@@H]1O[C@H](C)C(=O)O (stereo partly shown) [N-acetylmuramic acid]
T. mobilensis lectin; carbohydrates
  Minimal Inhibitory Conc.: > 100 mM

## CC(=O)N[C@H]1C(O)O[C@H](CO)[C@H](O)[C@@H]1O (stereo partly shown) [N-acetylgalactosamine]
T. mobilensis lectin; carbohydrates
  Minimal Inhibitory Conc.: > 100 mM
[1]; carbohydrates, […]
  Conc. required to inhibit 2 HA units, T. augusta: > 200 µg/mL
[2]; carbohydrates, […]
  Conc. required to inhibit 2 HA units, T. foetus: > 200 µg/mL
Live T. mobilensis
  Effect of specific carbohydrate on agglutinating activity of the appropriate lectin: abolished agglutinating activity
[3]; carbohydrates, […]
  Conc. required to inhibit 2 HA units, T. mobilensis: > 200 µg/mL

## OC[C@H]1OC(O)[C@H](O)[C@@H](O)[C@H]1O (stereo partly drawn) [D-galactose]
T. mobilensis lectin; carbohydrates
  Minimal Inhibitory Conc.: > 100 mM
[1]; carbohydrates, […]
  Conc. required to inhibit 2 HA units, T. augusta: > 200 µg/mL
[2]; carbohydrates, […]
  Conc. required to inhibit 2 HA units, T. foetus: > 200 µg/mL
Live T. mobilensis
  Effect of specific carbohydrate on agglutinating activity of the appropriate lectin: abolished agglutinating activity
[3]; carbohydrates, […]
  Conc. required to inhibit 2 HA units, T. mobilensis: > 200 µg/mL

## OC1OC[C@@H](O)[C@@H](O)[C@@H]1O (stereo partly drawn) [D-arabinose]
T. mobilensis lectin; carbohydrates
  Minimal Inhibitory Conc.: > 100 mM
[1]; carbohydrates, […]
  Conc. required to inhibit 2 HA units, T. augusta: > 200 µg/mL
[2]; carbohydrates, […]
  Conc. required to inhibit 2 HA units, T. foetus: > 200 µg/mL
[3]; carbohydrates, […]
  Conc. required to inhibit 2 HA units, T. mobilensis: > 200 µg/mL

## Orosomucoid: sialoconjugate (sialoglycoprotein)
Live cells of T. foetus
  Conc. required to Inhibit 2 HA Units: 500 µg/mL
[1]; sialoglycoproteins
  Conc. required to inhibit 2 HA units, T. augusta: 150 µg/mL
[2]; sialoglycoproteins
  Conc. required to inhibit 2 HA units, T. foetus: 150 µg/mL
[3]; sialoglycoproteins
  Conc. required to inhibit 2 HA units, T. mobilensis: 150 µg/mL

## Egg Albumin: glycoprotein or protein tested as inhibitor
T. mobilensis lectin; glycoproteins or proteins
  Minimal Inhibitory Conc.: > 1000 µg/mL

## Avidin: glycoprotein or protein tested as inhibitor
T. mobilensis lectin; glycoproteins or proteins
  Minimal Inhibitory Conc.: > 1000 µg/mL

## Bovine submaxillary mucin
T. mobilensis lectin; glycoproteins or proteins
  Minimal Inhibitory Conc.: 0.65 µg/mL
Live cells of T. foetus
  Conc. required to Inhibit 2 HA Units: 125 µg/mL
[1]; sialoglycoproteins
  Conc. required to inhibit 2 HA units, T. augusta: 40 µg/mL
[2]; sialoglycoproteins
  Conc. required to inhibit 2 HA units, T. foetus: 60 µg/mL
[3]; sialoglycoproteins
  Conc. required to inhibit 2 HA units, T. mobilensis: 60 µg/mL

## Fibronectin
T. mobilensis lectin; glycoproteins or proteins
  Minimal Inhibitory Conc.: > 333 µg/mL

## OC[C@H]1OC(O)[C@H](O)[C@@H](O)[C@@H]1O (stereo partly drawn) [D-glucose]
T. mobilensis lectin; carbohydrates
  Minimal Inhibitory Conc.: > 100 mM
[1]; carbohydrates, […]
  Conc. required to inhibit 2 HA units, T. augusta: > 200 µg/mL
[2]; carbohydrates, […]
  Conc. required to inhibit 2 HA units, T. foetus: > 200 µg/mL
[3]; carbohydrates, […]
  Conc. required to inhibit 2 HA units, T. mobilensis: > 200 µg/mL

## Lysozyme: glycoprotein or protein tested as inhibitor
T. mobilensis lectin; glycoproteins or proteins
  Minimal Inhibitory Conc.: > 1000 µg/mL

## COC(=O)C1(OC)CC(O)C(NC(C)=O)C(C(O)C(O)CO)O1 (stereo not drawn) [N-acetylneuraminic acid methyl ester, β-methyl glycoside]
T. mobilensis lectin; carbohydrates
  Minimal Inhibitory Conc.: > 100 mM

B1: Glycophorin: a major sialoglycoprotein of erythrocyte membranes (protein, UniProt P02724 20-150, looked up)
Glycophorin-A: LSTTEVAMHTSTSSSVTKSYISSQTNDTHKRDTYAATPRAHEVSEISVRTVYPPEEETGERVQLAHHFSEPEITLIIFGVMAGVIGTILLISYGIRRLIKKSPSDVKPLPSPDTDVPLSSVEIENPETSDQ
T. mobilensis lectin; glycoproteins or proteins
  Minimal Inhibitory Conc.: 0.42 µg/mL
Live cells of T. foetus
  Conc. required to Inhibit 2 HA Units: 10 µg/mL
[1]; sialoglycoproteins
  Conc. required to inhibit 2 HA units, T. augusta: 10 µg/mL
[2]; sialoglycoproteins
  Conc. required to inhibit 2 HA units, T. foetus: 10 µg/mL
[3]; sialoglycoproteins
  Conc. required to inhibit 2 HA units, T. mobilensis: 10 µg/mL

B2: Asialoglycophorin: glycophorin lacking the sialic acid (protein, UniProt P02724 20-150, looked up)
Glycophorin-A: LSTTEVAMHTSTSSSVTKSYISSQTNDTHKRDTYAATPRAHEVSEISVRTVYPPEEETGERVQLAHHFSEPEITLIIFGVMAGVIGTILLISYGIRRLIKKSPSDVKPLPSPDTDVPLSSVEIENPETSDQ
modifications: desialylated
notes: glycophorin lacking the sialic acid
T. mobilensis lectin; glycoproteins or proteins
  Minimal Inhibitory Conc.: 83.3 µg/mL
Live cells of T. foetus
  Conc. required to Inhibit 2 HA Units: 500 µg/mL
[1]; sialoglycoproteins
  Conc. required to inhibit 2 HA units, T. augusta: 500 µg/mL
[2]; sialoglycoproteins
  Conc. required to inhibit 2 HA units, T. foetus: 500 µg/mL
[3]; sialoglycoproteins
  Conc. required to inhibit 2 HA units, T. mobilensis: 500 µg/mL

B3: Asialofetuin: asialo- analog of fetuin (protein, UniProt P12763 19-359, looked up)
Alpha-2-HS-glycoprotein: IPLDPVAGYKEPACDDPDTEQAALAAVDYINKHLPRGYKHTLNQIDSVKVWPRRPTGEVYDIEIDTLETTCHVLDPTPLANCSVRQQTQHAVEGDCDIHVLKQDGQFSVLFTKCDSSPDSAEDVRKLCPDCPLLAPLNDSRVVHAVEVALATFNAESNGSYLQLVEISRAQFVPLPVSVSVEFAVAATDCIAKEVVDPTKCNLLAEKQYGFCKGSVIQKALGGEDVRVTCTLFQTQPVIPQPQPDGAEAEAPSAVPDAAGPTPSAAGPPVASVVVGPSVVAVPLPLHRAHYDLRHTFSGVASVESSSGEAFHVGKTPIVGQPSIPGGPVRLCPGRIRYFKI
modifications: desialylated
notes: asialo- analog of fetuin
T. mobilensis lectin; glycoproteins or proteins
  Minimal Inhibitory Conc.: 26.0 µg/mL
